ChEMBL document CHEMBL4184324, “Ligand Desolvation Steers On-Rate and Impacts Drug Residence Time of Heat Shock Protein 90 (Hsp90) Inhibitors” (J Med Chem, 2018)

Molecular target: Heat shock protein HSP90 (Homo sapiens, UniProt P07900+P08238)
Assay: Binding affinity to recombinant N-terminal Hsp90 (unknown origin) by SPR method
Assay type: protein assay

Row | Compound | Kd
1 | COc1ccc(N(C)C(=O)c2cc3c(Cc4cccc(C)c4)n[nH]c3cc2O)cc1 | 24 nM
2 | COc1ccc(N(C)C(=O)c2cc3c(Cc4cccc(C)c4)n[nH]c3cc2O)cc1Cl | 17.2 nM
3 | Cc1cccc(Cc2n[nH]c3cc(O)c(C(=O)N(C)c4cccc(C)c4)cc23)c1 | 70 nM
4 | Cc1cccc(Cc2n[nH]c3cc(O)c(C(=O)N(C)c4ccc(Br)cc4)cc23)c1 | 155.3 nM
5 | Cc1cccc(Cc2n[nH]c3cc(O)c(C(=O)N(C)c4ccc(OCCCC#N)cc4)cc23)c1 | 32.5 nM
6 | Cc1ccccc1-n1c(-c2cc(C(=O)N(C)Cc3cccc(-c4cccnc4)c3)c(O)cc2O)n[nH]c1=O | 34.6 nM
7 | CC(=O)N1CCc2ccc(N(C)C(=O)c3cc4c(Cc5cccc(C)c5)n[nH]c4cc3O)cc21 | 51.8 nM
8 | COc1cccc(N(C)C(=O)c2cc3c(Cc4cccc(C)c4)n[nH]c3cc2O)c1 | 43 nM
9 | CCCc1n[nH]c2cc(O)c(C(=O)N(C)c3ccc(N4CCOCC4)cc3)cc12 | 5.4 nM
10 | CC(=O)N1CCc2cc(N(C)C(=O)c3cc4c(Cc5cccc(C)c5)n[nH]c4cc3O)ccc21 | 50.9 nM
11 | CC(=O)c1ccc(N(C)C(=O)c2cc3c(Cc4cccc(C)c4)n[nH]c3cc2O)cc1 | 25.4 nM
12 | CCCCc1n[nH]c2cc(O)c(C(=O)N(C)c3ccc(N4CCOCC4)cc3)cc12 | 6.6 nM
13 | Cc1cccc(Cc2n[nH]c3cc(O)c(C(=O)N(C)c4cccc(F)c4)cc23)c1 | 61.2 nM
14 | COc1cccc(Cc2n[nH]c3cc(O)c(C(=O)N(C)c4ccc(N5CCOCC5)cc4)cc23)c1 | 12 nM
15 | Cc1cccc(Cc2n[nH]c3cc(O)c(C(=O)N(C)c4ccc(Cl)cc4)cc23)c1 | 152.9 nM
16 | Cc1cccc(Cc2n[nH]c3cc(O)c(C(=O)N(C)c4ccc(COCCN(C)C)cc4)cc23)c1 | 11.5 nM
17 | Cc1cccc(Cc2n[nH]c3cc(O)c(C(=O)N(C)c4ccc(F)cc4)cc23)c1 | 73 nM
18 | Cc1cccc(Cc2n[nH]c3cc(O)c(C(=O)N(C)c4ccc5c(c4)OCCO5)cc23)c1 | 38.6 nM
19 | CN(C(=O)c1cc2c(CC3CCCCC3)n[nH]c2cc1O)c1ccc(N2CCOCC2)cc1 | 42 nM
20 | CN(C(=O)c1cc2c(CC3CCCC3)n[nH]c2cc1O)c1ccc(N2CCOCC2)cc1 | 7.8 nM
21 | Cc1cccc(Cc2n[nH]c3cc(O)c(C(=O)N(C)c4ccc(CNS(C)(=O)=O)cc4)cc23)c1 | 16 nM
22 | Cc1cccc(Cc2n[nH]c3cc(O)c(C(=O)N(C)c4cccc(Cl)c4)cc23)c1 | 89 nM
23 | CN(C(=O)c1cc2c(C(=O)N3CCCCC3)n[nH]c2cc1O)c1ccc(N2CCOCC2)cc1 | 42 nM
24 | Cc1cccc(Cc2n[nH]c3cc(O)c(C(=O)N(C)c4ccc(CN5CCOCC5)cc4)cc23)c1 | 33.4 nM
